The results in this text go back to patent US11084789B2, “Mast-cell modulators and uses thereof” (Beth Israel Deaconess Medical Center, Inc., priority 2016, dated 2021).

Entries after “also recorded” stand apart in the source; their conditions may differ.

The subject of test [1] is wounds of diabetic (STZ) C57B16 mice. Nature of the test: Wound healing in diabetic mice. In kind it is in vivo. To be noted: DM mice. An excerpt:
(§1) C57B16 mice were made diabetic (DM) using Streptozotocin (STZ) and rabbits were made DM using alloxan. A 10-day wound-healing period was chosen since at least 80% wounds in non-DM mice and rabbits heal by that time-point. A dressing based on an alginate bandage for topical sustained release of Compound 1 was generated following the methods described in WO 2014/169250, and was then applied the shaved dorsum of DM mice either before (pre-wound) or after wounds (post-wound) were introduced. A comparison was made with the FDA-approved MC stabilizer, disodium cromoglycate (DSCG), 50 mg/kg DSCG (Intraperitoneal (ip) daily, 10 consecutive days prior to wounding) in non-DM and DM mice followed by wound procedure. Wound healing was monitored for 10 days.

For test [2], the system named is macrophages in skin of DM mice. In words: M1/M2 macrophages in intact skin of diabetic mice. The format is in vivo.
Source text: as §1

A further test has as its target CRAC channel (Rattus norvegicus, UniProt Q5M848). Nature of the test: Inhibition of thapsigargin-induced calcium influx (intracellular Ca2+, Fluo-4NW) in RBL-2H3 cells. In kind it is cell-based, rodent. As to conditions: 1 μM thapsigargin, 60 min compound incubation. How it is done:
RBL-2H3 cells (ATCC) were seeded in 96-well plate at 4×10^4 cells per well in DMEM-supplemented with 2% FBS and allowed to adhere overnight. Culture medium was then replaced with 50 μl of Ca^2+-free Tyrode solution to load Ca^2+-probe Fluo-4NW (Molecular Probe, Thermo Fisher, MA, USA) at 1:1 to the cells. New compound at indicated concentration was supplied during the probe loading from the beginning. Cells were incubated in the presence or absence of new compound for 60 minutes in the Ca^2+-free medium at 37° C. During the last 5 minutes of incubation, cells were treated with 1 μM thapsigargin (Sigma Aldrich) to deplete [Ca^2+]ER. 20 mM CaCl2 in saline solution was supplemented back to the [Ca^2+]ER-depleted cells to be 2 mM as final. Cell medium was removed 1 minute after Ca^2+ reloading, and changes in Fluo-4NW fluorescence (RFU) were recorded with the multi-mode plate reader (FilterMax F5, Molecular Devices/Thermo Fisher Scientific, MA, USA) at an excitation wavelength of 485 nm and an emission wavelength of 535 nm.
(§2) IC50 and EC50 were calculated by nonlinear regression using Prims Graphpad software. Statistical analysis was performed by one-way ANOVA and post-hoc test (Tukey's test).
Inhibitory activity of calcium influx by the described compounds was determined using the RBL-2H3 rodent MC cell line as the primary in vitro assay. […]

The next test deals with TNFα. Nature of the test: TNFα protein secretion by activated RBL cells (ELISA). The format is cell-based, rodent. As to conditions: secreted TNFα (pre-stored plus de novo) 4 hours after Ca2+ re-exposure. The protocol:
(§3) [Ca^2+]ER in RBL2H3 cells were depleted by Tg in the same manner in the presence of the CRAC channel blockers as for [Ca^2+]i measurement but without loading the cells with Fluo-4NW. Then 200 μl of DMEM-3% FBS (containing 3 mM Ca^2+) was supplemented back in the presence of the corresponding concentration of CRAC channel blockers. Thirty minutes after Ca^2+-add back culture supernatant was collected for degranulation measurement. Degranulation was measured as secreted β-hexosaminidase according to the protocol of the assay kit (Sigma-Aldrich, MO, USA). Nuclear fraction was prepared from the cells for NFAT by using a subcellular protein fractionation kit (NE-PER™ Nuclear and Cytoplasmic Extraction Reagents, Pierce Biotechnology, Thermo Fisher Scientific, MA, USA). Nuclear NFAT-c1 was measured with an ELISA kit (Active Motif, CA, USA). At this time point TNFα was measured as pre-stored release with ELISA kits (R&D Systems, MN, USA). In a part after Ca^2+ add back incubation was prolonged for 4 h to measure de novo production of the cytokine TNFα.
as §2
Mast cells can secrete pre-stored TNFα immediately upon activation, as well as de novo synthesized TNFα that takes a few hours to produce. RBL cells were activated similarly as described above, in the presence of various concentrations of a CRAC channel blocker. 4 Hours after RBL cells were re-exposed to Ca^2+, secreted TNFα (which accounted for the combined protein from pre-stored and de novo synthesized TNFα) in the supernatants were measured by ELISA.

The next test relates to RBL-2H3 cells. In words: Mast cell degranulation: β-hexosaminidase release from thapsigargin-activated RBL-2H3 cells. In kind it is cell-based, rodent. To be noted: 1 μM thapsigargin. How it is done:
as §3
Compound 12 was used to determine the inhibition of MC degranulation by measuring the release of pre-stored β-hexosaminidase 03-hex) upon MC activation. […] 30 Minutes after assay media were replenished with extracellular Ca^2+, supernatants and cell lysates were analyzed for β-hex concentrations by ELISA.

The next test has as its system NFAT-c1. In words: Nuclear translocation of NFAT in activated RBL cells (nuclear NFAT-c1 ELISA). The format is cell-based, rodent. How it is done:
as §3
The inhibition of nuclear translocation of the nuclear factor of activated T-cells (NFAT) by compound 12 in activated MCs was determined. […] Nuclear fraction was prepared from the cells by subcellular protein fractionation, and the nuclear NFAT-c1 content was measured by ELISA. […]
(In general: In an ELISA, binding on a coated surface is turned into a signal by an enzyme label.)

CRAC channel, sequence (Q5M848 whole entry): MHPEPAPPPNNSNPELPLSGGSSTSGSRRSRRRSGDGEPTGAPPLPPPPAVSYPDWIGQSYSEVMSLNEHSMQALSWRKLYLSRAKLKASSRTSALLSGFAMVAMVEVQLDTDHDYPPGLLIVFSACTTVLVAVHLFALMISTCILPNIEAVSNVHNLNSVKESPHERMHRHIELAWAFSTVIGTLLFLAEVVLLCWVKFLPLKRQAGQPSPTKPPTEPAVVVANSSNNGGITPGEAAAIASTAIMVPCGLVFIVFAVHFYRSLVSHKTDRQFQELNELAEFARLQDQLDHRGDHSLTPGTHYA
CRAC channel, sequence (P84903 23-685, further chain): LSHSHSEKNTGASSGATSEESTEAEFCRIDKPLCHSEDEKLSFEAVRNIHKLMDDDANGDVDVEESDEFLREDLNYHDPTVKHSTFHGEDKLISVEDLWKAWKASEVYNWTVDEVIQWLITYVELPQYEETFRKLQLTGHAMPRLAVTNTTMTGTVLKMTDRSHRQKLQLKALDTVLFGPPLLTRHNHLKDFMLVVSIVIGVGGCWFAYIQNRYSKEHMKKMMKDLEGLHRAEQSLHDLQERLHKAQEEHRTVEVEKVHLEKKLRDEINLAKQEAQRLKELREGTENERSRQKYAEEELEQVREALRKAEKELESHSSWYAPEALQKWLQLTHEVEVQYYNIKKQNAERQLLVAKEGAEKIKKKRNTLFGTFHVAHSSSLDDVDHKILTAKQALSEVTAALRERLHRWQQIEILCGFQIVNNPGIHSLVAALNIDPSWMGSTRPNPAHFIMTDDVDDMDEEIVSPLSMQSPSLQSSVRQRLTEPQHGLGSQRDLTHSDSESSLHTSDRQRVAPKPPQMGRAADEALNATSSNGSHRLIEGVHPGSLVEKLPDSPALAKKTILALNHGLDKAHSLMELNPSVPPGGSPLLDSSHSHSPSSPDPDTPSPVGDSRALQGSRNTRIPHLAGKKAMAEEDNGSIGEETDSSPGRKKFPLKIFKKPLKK

As to `O=C(Nc1c(F)cccc1F)c1cn(Cc2ccc(Cl)cc2Cl)c2ccccc12` [Compound 1, 1-[(2,4-dichlorophenyl)methyl]-N-(2,6-difluorophenyl)indole-3-carboxamide], the wound healing entry in test [1] (topical alginate dressing, 10 days pre-wounding or 10 days post-wounding, monitored 10 days) was “improved wound healing similar to systemic DSCG pre-treatment”. Further, the “number of M2 macrophages in skin” value in test [2] (treatment for 10 days without any wound) is “increased the number of M2 macrophages”.

What is called IC50 is the concentration at which inhibition is half-maximal. For `O=C(Nc1nn(Cc2ccc(Cl)cc2Cl)c2ccccc12)c1ccccc1F` [Compound 3, N-[1-[(2,4-dichlorophenyl)methyl]indazol-3-yl]-2-fluoro-benzamide], on CRAC channel, the IC50 was 29000 nM.

`O=C(Nc1c(F)cccc1F)c1nn(Cc2ccc(Cl)cc2Cl)c2ccccc12` [Compound 7, 1-[(2,4-dichlorophenyl)methyl]-N-(2,6-difluorophenyl)indazole-3-carboxamide]: in the test with TNFα, the IC50 was 470 nM.

On to `O=C(Nc1c(F)cccc1Cl)c1nn(Cc2ccc(Cl)cc2Cl)c2ccccc12` [Compound 8, N-(2-chloro-6-fluoro-phenyl)-1-[(2,4-dichlorophenyl)methyl]indazole-3-carboxamide], for which, in the test with TNFα, the IC50 is 740 nM.

Turning to `O=C(Nc1ccncc1F)c1cn(Cc2ccc(Cl)cc2Cl)c2ccccc12` [Compound 11, 1[(2,4-dichlorophenyl)methyl]-N-(3-fluoro-4-pyridyl)indole-3-carboxamide], in the test with TNFα, the IC50 came out at 580 nM.

Take `O=C(Nc1nn(Cc2ccc(Cl)cc2Cl)c2ccccc12)c1ccncc1F` [Compound 12, N-[1-[(2,4-dichlorophenyl)methyl]indazol-3-yl]-3-fluoro-pyridine-4-carboxamide]: in the test on RBL-2H3 cells (40% of β-hex released without inhibitor), the “inhibition of β-hex release at the highest concentration tested” value was “nearly complete inhibition of β-hex release”. Besides, the “inhibition of β-hex release” value in the test with RBL-2H3 cells (30 min after Ca2+ add back, various concentrations) is “significantly and dose-dependently inhibited the release of β-hex; also recorded: dose-dependent inhibition”. Besides, the “nuclear fraction of NFAT-c1 in activated RBL cells” value in the test with NFAT-c1 (1 μM thapsigargin, 30 min after Ca2+ add back, various concentrations, 5-fold increase without blocker) is “significantly and dose-dependently reduced the nuclear fraction of NFAT-c1; also recorded: dose-dependent inhibition”. For the same molecule, the “levels of nuclear NFAT at 10 μM and higher concentrations” value in the test with NFAT-c1 (10 μM and higher, activated RBL cells) was “restore the levels of nuclear NFAT to that of resting MCs”. Besides, the concentration for half-maximal inhibition (IC50) with TNFα was determined as 280 nM.

Consider `O=C(Nc1ccc(F)cc1F)c1nn(Cc2ccc(Cl)cc2Cl)c2ccccc12` [Compound 14, 1-[(2,4-dichlorophenyl)methyl]-N-(2,4-difluorophenyl)indazole-3-carboxamide], for which, in the test with TNFα, the concentration for half-maximal inhibition (IC50) amounted to 640 nM.

On to `O=C(Nc1c(F)cncc1F)c1nn(Cc2ccc(Cl)cc2Cl)c2ccccc12` [Compound 15, 1-[(2,4-dichlorophenyl)methyl]-N-(3,5-difluoro-4-pyridyl)indazole-3-carboxamide], for which the concentration for half-maximal inhibition (IC50) with TNFα came to 140 nM.

For the molecule `O=C([O-])c1cc(=O)c2c(OCC(O)COc3cccc4oc(C(=O)[O-])cc(=O)c34)cccc2o1.[Na+].[Na+]` [DSCG, disodium cromoglycate, reference compound], the wound healing entry in test [1] (50 mg/kg ip daily, 10 consecutive days prior to wounding, p<0.05) is given as “improved diabetic mouse wound healing”. Also, the “M1/M2 ratio in intact skin” value in test [2] (DSCG treatment) is “reduced M1/M2 ratio in intact skin”.
